The values below come from patent US20260274814A1, “THIENYL COMPOUNDS FOR THE TREATMENT OF A CENTRAL NERVOUS SYSTEM DISEASE OR DISORDER” (Coreterra Therapeutics, Inc., priority 2023, published 2026).

This experiment relates to mice. The experiment in a line: Neuropharmacological Assay (SmartCube): automated behavioral signature of compound-treated mice compared with a database of reference drug classes. Type of experiment: in vivo. To be noted: for AG / AN / AP / AX / CE / HL / MS / PS / SH / AD / UK: 3.0 mg/kg i.p., 15 min before test; for minimal effective dose: Mus musculus, ip. The gist of the method:
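Compounds in N-methyl-2-pyrrolidone/polyethylene glycol/propylene glycol were given i.p. 15 min before testing, at 3 doses; values shown are for 3.0 mg/kg. Video-captured behaviour was matched by algorithm against reference drug classes, giving a probability per class. MED: lowest dose reaching ≥45% total activity.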

[1] abbreviates: probability that activity matches this class of agents.
Where [2] appears, read: probability that activity matches this class of agents, 3 mg/kg.
Setting [3] is: minimal effective dose: dose having 45% or more total activity in SmartCube, i.p., if only one dose tested, that dose is shown, read-out: MED.
The mark [4] stands for this setting: SmartCube class probability, hydrochloride, 3 mg/kg.
Where [5] appears, read: probability that activity matches this class of agents, hydrochloride, 3 mg/kg.

Where a name gives a salt, the structure may show the parent alone. Read-outs that look alike come from different tables or passages of the source.

Consider `CNC1CCc2c(C(F)(F)F)sc(C)c2C1` (single isomer, unassigned; enantiomer 2) [Compound 107, N, 3-dimethyl-1-(trifluoromethyl)-4,5,6,7-tetrahydro-2-benzothiophen-5-amine hydrochloride enantiomer 2], for which, where the note is “dose having 45% or more total activity in SmartCube, i.p., if only one dose was tested, that dose is shown”, the “MED (minimal effective dose)” value was found to be 10 mpk. Moreover, under setting [1], the AG result was “ND (^ <4%)”, the AN entry was “ND (^ <4%)”, the AP result was “ND (^ <4%)” and the AX result is given as “ND (^ <4%)”. Moreover, under setting [1], the CE entry was “ND (^ <4%)”, the HL result is given as “ND (^ <4%)”, the MS result is “ND (^ <4%)” and the PS entry is recorded as “ND (^ <4%)”. Under setting [1], the SH result is “ND (^ <4%)”. Under setting [2], the AD result is listed as “ND (^ <4%)” and the UK entry is on record as “ND (^ <4%)”.
On to `NC1CCc2scc(Cl)c2C1` (stereo not drawn) [Compound 187, 3-chloro-4,5,6,7-tetrahydrobenzothiophen-5-amine hydrochloride], for which the minimal effective dose under setting [3] stood at 3 mg/kg. In addition, under “SmartCube class probability”, the AD entry is reported as “ND (^ <4%)”, the AG entry is “ND (^ <4%)”, the AN result was “ND (^ <4%)” and the AP entry is on record as “++ (≥24%)”. For the setting “SmartCube class probability”, the AX result is given as “ND (^ <4%)”, the CE entry is given as “ND (^ <4%)”, the HL entry was “ND (^ <4%)” and the MS entry is “ND (^ <4%)”. Where the note is “SmartCube class probability”, the PS result is “ND (^ <4%)”, the SH entry is “ND (^ <4%)” and the UK result was “++ (≥24%)”.
`NC1CCc2sccc2C1` (single isomer, unassigned) [Compound 212, 4,5,6,7-tetrahydrobenzothiophen-5-amine hydrochloride]: under setting [3], the minimal effective dose worked out at 1 mg/kg. For the same molecule, under “SmartCube class probability”, the AG entry is “ND (^ <4%)”, the AN entry was “ND (^ <4%)”, the AP result is “+ (≥4%)” and the HL result is on record as “ND (^ <4%)”. For the setting “SmartCube class probability”, the MS result is “ND (^ <4%)”, the PS result is reported as “ND (^ <4%)” and the UK result was “ND (^ <4%)”. For the same molecule, under setting [4], the AD entry was “+++ (≥49%)”, the AX result was “+ (≥4%)”, the CE result was “+ (≥4%)” and the SH entry is given as “ND (^ <4%)”.
With `NC1COc2c(C(F)(F)F)csc2C1` (stereo not drawn) [Compound 221, 3-(trifluoromethyl)-6,7-dihydro-5H-thieno[3,2-b]pyran-6-amine hydrochloride], the minimal effective dose under setting [3] amounted to 3 mg/kg. Besides, for the setting “SmartCube class probability”, the AD result is on record as “ND (^ <4%)”, the AG entry is reported as “ND (^ <4%)”, the AN result was “+ (≥4%)” and the AP result was “ND (^ <4%)”. Under “SmartCube class probability”, the AX result is recorded as “++ (≥24%)”, the CE entry is recorded as “ND (^ <4%)”, the HL result is reported as “+ (≥4%)” and the MS entry is given as “ND (^ <4%)”. Besides, where the note is “SmartCube class probability”, the PS result is “ND (^ <4%)”, the SH result was “ND (^ <4%)” and the UK result is “++ (≥24%)”.
Turning to `CC1(N)CCc2ccsc2C1` (single isomer, unassigned) [Compound 111, 6-methyl-5,7-dihydro-4H-benzothiophen-6-amine hydrochloride], the minimal effective dose (dose having 45% or more total activity in SmartCube, i.p., if only one dose was tested, that dose is shown, read-out: MED (minimal effective dose)) stood at 3 mg/kg. For the same molecule, under setting [1], the AG entry is recorded as “ND (^ <4%)”, the AN entry is listed as “ND (^ <4%)”, the AP entry is on record as “ND (^ <4%)” and the CE result is listed as “ND (^ <4%)”. Moreover, under setting [1], the HL entry is “ND (^ <4%)”, the MS entry is “ND (^ <4%)”, the SH entry is “ND (^ <4%)” and the UK entry is reported as “ND (^ <4%)”. Also, under setting [5], the AD result is recorded as “++ (≥24%)”, the AX result is on record as “++ (≥24%)” and the PS result was “+ (≥4%)”.
